Measurements: patent publication US11440913B2, “Aminoimidazopyridazines as kinase inhibitors” (BRISTOL-MYERS SQUIBB COMPANY, priority 2017, dated 2022)
Read-outs that look alike come from different tables or passages of the source.

Tests used:
[1] = target: His-GST-TVMV-hRIPK1(1-324) (Homo sapiens (Human), UniProt Q13546); assay: RIPK1 HTRF Binding Assay; conditions: HTRF binding, 1 h at rt; read-out: RIPK1 (IC50)
Summary of the method: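 HTRF probe-displacement binding: 1 nM His-GST-TVMV-hRIPK1(1-324) (baculovirus construct), 90.6 nM probe, 0.2 nM anti-GST-Tb in 20 mM HEPES, 10 mM MgCl2, 0.015% Brij-35, 4 mM DTT, 0.05 mg/mL BSA. Incubated 1 h at rt; FRET 520/495 nm ratio, inhibition relative to DMSO-only wells.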

[2] = test system: MLKL phosphorylation in HT29-L23 human colorectal adenocarcinoma cells; assay: MLKL Phosphorylation High-Content Assay; type: cell-based; conditions: 6 h, necroptosis induced with TNFα, SMAC mimetic and Z-VAD, read-out: pMLKL (IC50)
Summary of the method: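 HT29-L23 cells pretreated 30 min at 37 °C with compound (6.25 to 0.106 μM final), then necroptosis induced with TNFα 35 ng/mL, SMAC mimetic 700 nM and Z-VAD 140 nM for 6 h. Fixed cells immunostained for MLKL pS358 and imaged; IC50 and Ymax from 4-parameter logistic fit.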

Sequence of His-GST-TVMV-hRIPK1(1-324) (Q13546 1-324): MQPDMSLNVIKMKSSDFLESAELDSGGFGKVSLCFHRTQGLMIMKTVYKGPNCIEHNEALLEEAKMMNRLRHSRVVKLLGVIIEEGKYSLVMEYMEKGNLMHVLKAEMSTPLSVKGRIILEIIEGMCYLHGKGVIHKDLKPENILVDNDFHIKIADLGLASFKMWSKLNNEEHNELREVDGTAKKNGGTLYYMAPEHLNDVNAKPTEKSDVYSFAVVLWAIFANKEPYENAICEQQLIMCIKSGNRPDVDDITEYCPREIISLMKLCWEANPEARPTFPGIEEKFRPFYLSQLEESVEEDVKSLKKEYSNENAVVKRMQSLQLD

Row | Compound | IC50 [1] [nM] | IC50 ([2]; Homo sapiens) [nM] | IC50 [2] [nM]
1 | COc1nc(C)c(-c2ccc3nc(NC(C)=O)cn3n2)cc1C(=O)NCc1cc(OCC2CC2)ccc1F [Example 297, N-{[5-(cyclopropylmethoxy)-2-fluorophenyl]methyl}-5-{2-acetamidoimidazo[1,2-b]pyridazin-6-yl}-2-methoxy-6-methylpyridine-3-carboxamide] | 11 | 36 | 
2 | CC(=O)Nc1cn2nc(-c3cc(C(=O)NCC[C@@H](O)c4ccc(Cl)cc4)cc(F)c3C)ccc2n1 [Example 373, N-[(3R)-3-(4-chlorophenyl)-3-hydroxypropyl]-3-{2-acetamidoimidazo [1,2-b]pyridazin-6-yl}-5-fluoro-4-methylbenzamide] | 11 | 51 | 
3 | CC(=O)Nc1cn2nc(-c3cc(C(=O)NCC[C@H](O)c4ccc(Cl)cc4)c(C)nc3C)ccc2n1 [Example 82, N-[(3S)-3-(4-chlorophenyl)-3-hydroxypropyl]-5-{2-acetamidoimidazo[1,2-b]pyridazin-6-yl}-2,6-dimethylpyridine-3-carboxamide] | 21 | 18 | 
4 | COc1ncc(-c2ccc3nc(NC(=O)C(C)(C)C#N)cn3n2)cc1C(=O)NCc1cc(OCC2CC2)ccc1F [Example 29, 5-[2-(2-cyano-2,2-dimethylacetamido)imidazo[1,2-b]pyridazin-6-yl]-N-{[5-(cyclopropylmethoxy)-2-fluorophenyl]methyl}-2-methoxypyridine-3-carboxamide] | 257 | 450 | 
5 | Cc1ncc(-c2ccc3nc(NC(=O)CN(C)C)cn3n2)cc1C(=O)NCC[C@H](O)c1ccc(Cl)cc1 [Example 347, N-[(3S)-3-(4-chlorophenyl)-3-hydroxypropyl]-5-{2-[2-(dimethylamino)-acetamido]-imidazo[1,2-b]pyridazin-6-yl}-2-methylpyridine-3-carboxamide] | 44 | 89 | 
6 | [2H]C([2H])([2H])Oc1nc(C)c(-c2ccc3nc(NC(C)=O)cn3n2)cc1C(=O)NCc1cc(OCC2CC2)ccc1F [Example 180, N-{[5-(cyclopropyhnethoxy)-2-fluorophenyl]methyl}-5-{2-acetamidoimidazo[1,2-b]pyridazin-6-yl}-2-(deutero)methoxy-6-methylpyridine-3-carboxamide] | 4 | 18 | 
7 | COc1ncc(-c2ccc3nc(NC(C)=O)cn3n2)cc1C(=O)NCc1ccccc1OCC1CCCC1 [Example 164, N-{[2-(cyclopentylmethoxy)phenyl]methyl}-5-{2-acetamidoimidazo[1,2-b]pyridazin-6-yl}-2-methoxypyridine-3-carboxamide] | 10 | 32 | 
8 | COc1nc(C)c(-c2ccc3nc(NC(C)=O)cn3n2)cc1C(=O)NCc1ccccc1OC(C)C1CCCC1 (centres unmarked) [Example 302, N-{[2-(1-cyclopentylethoxy)phenyl]methyl}-5-{2-acetamidoimidazo[1,2-b]pyridazin-6-yl}-2-methoxy-6-methylpyridine-3-carboxamide] | 25 |  | 16
9 | COc1c(F)cc(F)cc1CNC(=O)c1c(C)ccc(-c2ccc3nc(NC(C)=O)cn3n2)c1F [Example 414, N-[(3,5-difluoro-2-methoxyphenyl)methyl]-3-{2-acetamidoimidazo [1,2-b]pyridazin-6-yl}-2-fluoro-6-methylbenzamide] | 91 | 384 | 
10 | COc1nc(C)c(-c2ccc3nc(NC(C)=O)cn3n2)cc1C(=O)NC(C)c1ccccc1OC(F)(F)F (centres unmarked) [Example 290, 5-{2-acetamidoimidazo[1,2-b]pyridazin-6-yl}-2-methoxy-6-methyl-N-{1-[2-(trifluoromethoxy)phenyl]ethyl}pyridine-3-carboxamide] | 7 |  | 3
